The test system of experiment [1] is peripheral blood CD3+ T cells. Put plainly: TCR/CD3 stimulated proliferation of liposome-transfected CD3+ T cells treated with 8-CPT-cAMP. The format is cell-based, human. The note with it: for IC50: FIG. 10. The procedure:
FIG. 8. Reversal of cAMP-mediated inhibition of TUR/CD3 stimulated T cell proliferation by the use of ribozyme to the RIα subunit of protein kinase A type I. TCR/CD3 stimulated proliferation of peripheral blood CD3+ T cells from normal healthy blood donor following treatment with liposomes alone (mock) or with liposomes and RIα ribozyme (RIα rbz, 10 μM) in the absence (solid bars) and presence (open bars) of 8-CPT-cAMP (12,5 μM).
FIG. 9. Reversal of cAMP-mediated inhibition of TCR/CD3 stimulated T cell proliferation by the use of competitor peptide to compete the TCR/CD3 associated anchoring of RIα subunit of protein kinase A type I in T cells. TCR/CD3 stimulated proliferation of peripheral blood CD3+ T cells from normal healthy blood donor following treatment with liposomes alone (mock) or with increasing concentrations (25 to 100 μM) of a competitor peptide (Ht-31) that competes anchoring, to PKA type II or a control peptide (Ht31-P).
FIG. 10. TCR/CD3 stimulated proliferation of peripheral blood CD3+ T cells in the presence of increasing, concentrations of 8-CPT-cAMP. Normalized levels of proliferation of T cells mock transfected with liposomes only (solid circles, continuous line) or incubated with liposomes and Ht31 peptide (35 μM) to compete anchoring of protein kinase A type I (open circles, dotted line) was assessed as [^3H]-thymidine incorporation after 48 h during which [^3H]-thymidine was added for the last 18 h. Note: right shift of the IC50 (arrow) from 1,8 to 4,8 μM in the presence of […].
When transfected as synthetic RNA ribozyme or as a synthetic RNA ribozyme stabilized by incorporation of 2-deoxycytosine and 2-deoxy-uracil analogs into peripheral blood CD3+ T cells, the ribozyme reduced levels of RIα protein to approximately 20% of control levels by removing the RIα mRNA. By this strategy, the majority of protein kinase A type 1 was removed from the T cells. We then assessed the immune responsiveness of CD3+ T cells transfected with ribozyme compared to control (mock) transfected T cells measured as T cell proliferation after activation of T cells by stimulation of the T cell receptor/CD3 complex (TCR/CD3). In order to simulate a T cell dysfunction as that of HIV infection, with elevated levels of cAMP and increased activation of protein kinase A type 1, we treated normal T cells with low dose (12.5 around IC50) of the cAMP analog 8-(4-chlorophenyl)-thio-cAMPS (8-CPT-cAMP). […] For in vivo use pretreatment of ribozymes to allow cellular uptake or introduction into cells as minigenes will be necessary.
We incubated blood CD3+ T cells with increasing concentrations of Ht31 (SEQ. ID. NO 2) peptide. In order to facilitate uptake, cells were treated with liposomes in the presence or absence of-peptide. The optimal concentrations of DOTAP liposomes and anti-CD3 antibody were titrated carefully in order to maintain the membrane stability and normal TCR/CD3-dependent activation of the T cells. Cells were incubated for 20 hours with DOTAP/peptide and incubations continued in the absence (solid bars) or presence of 8-CPT-cAMP (6.25 μM, hatched bars) and activated to proliferation by stimulation of TCR/CD3 T cell immune responsiveness was assessed as [3H]thymidine incorporation.
Next, the effect of the competitor peptide (Ht-31, 35 μM) on T cell proliferation was examined in the presence of increasing concentrations of 8-CPT-cAMP and compared to mock transfected cells treated with the same concentrations of 8-CPT-cAMP (FIG. 10). As shown previously for normal peripheral blood T cells. […] Compared to the left-shifted curves observed with T cells from HIV-infected patients or patients with CIV due to elevated levels of endogenous cAMP activating PKA type 1, the right-shift observed here would be expected to normalize the situation in patients.

Experiment [2] concerns peripheral blood CD3+ T cells. Put plainly: TCR/CD3 (anti-CD3) stimulated T cell proliferation, [3H]-thymidine incorporation. The experiment is classed as cell-based, human. On the procedure:
(§1) Human peripheral blood CD3+ T cells were purified by negative selection from 50 ml of heparin-treated blood from normal healthy donors (Ullevaal University Hospital Blood Center, Oslo. Norway) or patients. Briefly, peripheral blood mononuclear cells were isolated by density gradient (Lymphoprep, NycoMed, Oslo, Norway) centrifugation followed by negative selection using monodisperse magnetic beads directly coated with antibodies to CD14 and CD19 and rat anti-mouse IgG beads coated with antibodies to CD56 and a magnet. Magnetic beads were all from Dynal (Oslo, Norway, cat. no. 111.12, 111.04, and 110.11. respectively) whereas anti-CD56 antibody was from Pharmingen (San Diego, Calif., cat. no. 31660.d). All steps were performed at 4° C.
as §1, with “Peripheral blood” for “Human peripheral blood”, “Center, Oslo,” for “Center, Oslo.”, “selection using,” for “selection using”, “and 110.11,” for “and 110.11.”, “Calif., eat.” for “Calif., cat.”
Proliferation assays were performed by incubation of 0.75×10^6 CM+ T cells/ml in a 100 μl volume in that-bottom 96-well microtiter plates. Activation was achieved by subsequent addition of monodisperse magnetic beads coated with sheep anti-mouse IgG (Dynal. cat. no. 110.02) at a cell:bead ratio of 1:1 followed by addition of antiCD3 (clone SpvT3b) at a final dilution of 1:125,000 for the experiments shown. The optimal concentration of antibody was titrated carefully in the initial setup and parallel experiments at several different dilutions of antibody was always performed. Proliferation was analyzed by incubating, cells for 72 hours during which [^3H]thymidine was included for the last 16 hours. Cells were washed and harvested onto filters using a Scatron harvester (Suffolk, UK) and subsequently analyzed by β-scintillation counting. cAMP analogs, when used, were added 30 min prior to activation by addition of […] antibodies. 8-CPT-cAMP was from Sigorna (St. Louis, Mo.) and Sp- and Rp-8-Br-cAMPS were from BioLog Life Science Company (Bremen, Germany) and were all dissolved to concentrations of 4 to 10 mM in PBS and concentrations calculated using the extinction coefficients given by the manufacturer.

Several values for one entry are separate records, joined by “and”; a condition that tells them apart may be missing. Equal values may be shown once. Marks after values point to notes of the source that are not given here.

Take `Nc1ncnc2c1nc(Sc1ccc(Cl)cc1)n2[C@@H]1O[C@@H]2COP(=O)(O)O[C@H]2[C@H]1O` [8-CPT-cAMP, 8-(4-chlorophenylthio)cAMP, reference compound]: the “T cell proliferation in presence of cAMP analog” value in experiment [1] (mock transfected normal T cells, 8-CPT-cAMP 12.5 μM, FIG. 8) is given as “approximately 20 % of control”. For the same molecule, the IC50 in experiment [1] (normal T cells incubated with liposomes and Ht31 peptide (35 μM), read-out: apparent IC50, inhibition of TCR/CD3 stimulated proliferation) is 4.8 µM; in experiment [1] (normal T cells mock transfected with liposomes only, read-out: IC50, inhibition of TCR/CD3 stimulated proliferation), ~1.8 µM and 1.8 µM; in experiment [2] (T cells from HIV+ asymptomatic patients, n = 8, median (25 to 75% range), read-out: Inhibition of proliferation by 8-CPT-cAMP IC50) it was 2.26 µM; in experiment [2] (T cells from HIV+ symptomatic patients, n = 10, median (25 to 75% range), read-out: Inhibition of proliferation by 8-CPT-cAMP IC50), 1.87 µM; in experiment [2] (T cells from a healthy blood donor, FIG. 1B, read-out: IC50, inhibition of TCR/CD3 stimulated proliferation), 6.11 µM; in experiment [2] (T cells from a representative HIV-infected patient (#10 in Table 2a), FIG. 1B, read-out: IC50, inhibition of TCR/CD3 stimulated proliferation), 1.78 µM. Also, the IC50 in experiment [2] (T cells from normal controls, n = 8, median (25 to 75% range), read-out: Inhibition of proliferation by 8-CPT-cAMP IC50) is 4.59 µM; in experiment [2] (T cells from patients on triple combination therapy, n = 9, median (25 to 75% range), read-out: Inhibition of proliferation by 8-CPT-cAMP IC50), 2.59 µM; in experiment [2] (T cells of individual CVI patients #1-#7, read-out: Inhibition of proliferation by 8-CPT-cAMP (IC50)), 3.68 µM and 3.36 µM and 3.16 µM and 2.66 µM and 2.34 µM and 2.98 µM and 2.26 µM; in experiment [2] (median in 7 CVI patients, read-out: Inhibition of proliferation by 8-CPT-cAMP (IC50)), 2.98 µM; in experiment [2] (median in 8 healthy controls, read-out: Inhibition of proliferation by 8-CPT-cAMP (IC50)), 4.59 µM; in experiment [2] (one healthy control, FIG. 4B, read-out: IC50, inhibition of anti-CD3 stimulated T lymphocyte proliferation), 4.66 µM. Further, the IC50 in experiment [2] (one representative CVI patient, FIG. 4B, read-out: IC50, inhibition of anti-CD3 stimulated T lymphocyte proliferation) came to 2.26 µM. For the same molecule, in experiment [2] (T cells from HIV seropositive individuals, n=18), the “Hill coefficient of cAMP-inhibition curve” value is 1.19 (1.13–1.40). For the same molecule, the “Inhibition of proliferation by 8-CPT-cAMP Hill coefficient” value is reported as 1.18(1.09–1.36)^b in experiment [2] (T cells from HIV+ asymptomatic patients, n = 8, median (25 to 75% range)); 1.19(1.13–1.40)^o in experiment [2] (T cells from HIV+ symptomatic patients, n = 10, median (25 to 75% range)); 1.59(1.40–1.81) in experiment [2] (T cells from normal controls, n = 8, median (25 to 75% range)); 1.35(1.33–1.68) in experiment [2] (T cells from patients on triple combination therapy, n = 9, median (25 to 75% range)). For the same molecule, the “Inhibition of proliferation by 8-CPT-cAMP (−Hill coefficient)” value in experiment [2] (T cells of individual CVI patients #1-#7) was 1.34 and 1.38 and 2.03 and 1.39 and 1.46 and 1.47 and 1.26; in experiment [2] (median in 7 CVI patients), 1.39^§; in experiment [2] (median in 8 healthy controls) it was 1.59.

For the origin of these results see patent publication US7192932B1, “Use of immunomodulating agents” (Lauras AS, priority 1997, dated 2007).
